Laboratory results from patent US8802439B2, “Methods for enhancing infectivity of retroviruses” (priority 2009, dated 2014).

Experiments:
HIV-1 [1] = assay: Single-round infectivity on TZM-bl cells of HIV-1 produced in Pin1-inhibited 293T cells (Galacton-Star galactosidase assay); format: cell-based; settings: for boost of infectivity: TZM-bl target cells
Text: Viral inocula from transfections above were normalized to equal virion particle number via p24 ELISA and used to infect target CD4^+ HeLa cells (1×10^5 TZM-bl). Infectivity was scored using the Galacton-Star enzymatic galactosidase activity assay, and infectivity quantified by relative […] units (R.F.U).
Plasmids: Laboratory-adapted provirus NL4.3, and the CypA-independent NL4.3 CAi2 were kindly provided by Akio Adachi (Department of Virology, Institute of Health Biosciences, The University of Tokushima Graduate School, JAPAN). Mutant R9G89V was a gift from P. Gallay (TSR1) as were NL4.3-GFP and SIV-GFP (originally Dana Gabuzda, Dana Farber Cancer Institute). NL4.3 A92E was kindly provided by W. Phares (Genetics Unit, Novartis Forschungsinstitut, Vienna, Austria). R9Δgp160 plasmid clone was kindly provided by C. Aiken (Vanderbilt Medical Center). VSV-G (CMV-VSV-G) was kindly provided by D. Trono (École Polytechnique Fédérale de Lausanne). Both bMLV-GFP and nMLV-GFP in the form of pCIG3-N, pCIG3-B as well as pCNCG were kindly provided by J. Stoye (National Institute for Medical Research, UK). Isomerase mutant Pin1 (pFLAG-Pin1R68,69A) and WW-domain mutant Pin1 (pFLAG-Pin1 W34A) were constructed by site-directed mutagenesis. Pseudotyping experiments were performed using DNA constructs encoding the VSV-G generously provided by D. Trono. Human Pin1 was cloned into pFLAG (Sigma-Aldrich) making pFLAG-Pin1. Viruses were produced by transfection of 293T cells using either GeneJuice (Novagen) or calcium phosphate. […] All viruses were harvested 24-48 hours post-transfection and filtered (0.2-μM filter, Steriflip Millipore). HIV-1 viruses were normalized by p24 ELISA (Alliance HIV-1 p24 Antigen ELISA Kit, Perkin Elmer), and/or were normalized via the EnzChek® Reverse Transcriptase Assay Kit (E-22064) (Molecular Probes).
(§1) Infection assays for retrovirus: Single-round infections: CD4^+ TZM-bl 100,000 cells/well/mL were seeded onto 24-well plates 24 hours prior to infection. These cells were infected in quadruplicate to 24-well plates. Infectivity was scored using an enzymatic galactosidase activity assay. Specifically, infected TZM-bl cells were washed and lysed, and 20 μl of lysate was transferred to a 96-well plate for detecting β-galactosidase activity. 100 μl of reaction buffer Galacton-Star substrate (Applied Biosystems, Bedford, Mass.), diluted 1:50, was added to 20 μl of lysate, and the light emission was measured over 1 second in a microplate luminometer after 30 minutes incubation. For human PBMC infections, cells were exposed to 10 ng of wild-type virus for 6 hours, washed, and split into two flasks: one with 10 μM PiB added on day 0 and 3, and one without PiB. Replication was monitored by p24 ELISA. For measuring infectivity of GFP-virus, 50,000 TZMb1, sMAGI, OMK, Vero, BSC-1 and CV-1 cells/well/mL were seeded onto 6-well plates respectively 24 hours prior to infection. Viruses were used to infect in duplicate wells, incubated for 48 hours, washed with PBS, trypsinized, fixed in 1% formaldehyde and subsequently analyzed by fluorescence-activated cell sorting (FACS) for percentage cells infected.
(§2) To examine a potential role for Pin1 in HIV-1 replication we used two inhibitors of Pin1: juglone and PiB. […] 293T cells were transfected with a proviral construct encoding wild-type HIV-1 in the presence or absence of PiB or juglone.

HIV-1 [2] = assay: HIV-1 replication in human PBLs monitored by p24 ELISA; format: cell-based
Description: (E) Replication kinetics of wild-type HIV-1 in human PBLs is enhanced by Pin1 isomerase inhibitors. 2×10^6 PBLs from patient donors were challenged with HIV-1 in the presence (lighter squares, top) or absence (black circles, bottom) of 10 μM PiB, which was added again at day 3 to maintain drug pressure. Replication was monitored by sampling virus concentration in supernatants via p24 ELISA.
Cell Lines and PBMCs: The TZM-bl cell line was obtained through the NIH AIDS Research and Reference Reagent Program, Division of AIDS, NIAID, NIH: TZM-bl from Dr. John C. Kappes, Dr. Xiaoyun Wu and Tranzyme Inc. The sMAGI cell line was obtained through the AIDS Research and Reference Reagent Program, Division of AIDS, NIAID, NIH: CMMT-CD4-LTR-β-Gal (sMAGI) from Dr. Julie Overbaugh. African green kidney BS-C-1 CCL-26, African green kidney CV-1 CCL-70, African green kidney Vero CCL-81, owl kidney OMK(637-69) CRL-1556 and 293T cell lines were obtained from ATCC. To generate PBMCs, human blood from normal healthy donors (General Clinical Research Center, TSR1) was fractionated via gradient centrifugation through histopaque-1077 (Sigma-Aldrich). Peripheral blood lymphocytes (PBLs) were cultured in RPMI supplemented with 20% FBS, 20 U ml^−1 IL-2.
as §1, with “infected. […]” for “infected.”
PBLs from human donors were challenged with HIV-1 in the presence (squares) or absence (circles) of 10 μM PiB. Replication was monitored by sampling virus concentration in supernatants via p24 ELISA. […]

293T cells = settings: cell count and trypan blue staining (data not shown)
Text: as §2

[3] = produced in 293T with 10 μm PiB, TZMb1

CCOC(=O)CN1C(=O)c2ccc3c4c(ccc(c24)C1=O)C(=O)N(CC(=O)OCC)C3=O [PiB, diethyl-1,3,6,8-tetrahydro-1,3,6,8-tetraoxobenzo[lmn][3,8]phenanthroline-2,7-diacetate]
HIV-1 infectivity after treatment of target cells (HIV-1 [1]; TZM-bl pre-incubated with 0, 2, 10 μM PiB for 24 hours before VSV-G pseudotyped virus, read 48 hours post-infection): no effect on HIV-1 infectivity | infectivity of VSV-G pseudotyped HIV-1 lacking gp160 (NL4.3 Δenv) (HIV-1 [1]; produced in 293T in the presence of 2 μM or 10 μM PiB, TZM-bl): enhanced | boost of wild-type NL4.3 virus in the FIG. 3H experiment (HIV-1 [1]; [3]): rather mild boost | infectivity of CypA-deficient R9G89V mutant HIV-1 (HIV-1 [1]; [3]): dramatically boosted | boost of infectivity (HIV-1 [1]; viruses produced in 293T in the presence of 2.0 μM inhibitor): 2 fold | boost of infectivity (HIV-1 [1]; viruses produced in 293T in the presence of 10 μM PiB): 8 fold | replication kinetics of wild-type HIV-1 in human PBLs (HIV-1 [2]; 10 μM PiB, added again at day 3): enhanced | elevated replication kinetics versus untreated (HIV-1 [2]; human PBLs, 10 μM PiB, after six days, average of two donors): seven fold | increase in infectivity versus untreated (HIV-1 [2]; human PBLs, day 5): seven-fold | p24 in supernatant at peak replicative differential (HIV-1 [2]; human PBLs, day 5, untreated 0.2 μg/ml): 1.4 µg/mL | producer cell viability (293T cells): no effect
